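Values below derive from 48-hour exposures of cells grown in 96-well plates, with endpoints linearly interpolated between the two concentrations bracketing the appropriate inhibition level. GI50 marks 50% less growth. At the TGI there is no net growth.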 Where a SMILES comes first, the peptide text is derived from it. The star is where a group is joined. Cbz = O=C(OCc1ccccc1)*; Bn = c1ccc(C*)cc1
Legend:
Assay in all cases: NCI tumour cell line growth inhibition, 48 h
PC-3 prostate = tested on: PC-3 prostate
MDA-MB-435 = tested on: MDA-MB-435
HOP-18 NSCLC = tested on: HOP-18 NSCLC
SN12K1 renal = tested on: SN12K1 renal
DMS 114 small cell lung = tested on: DMS 114 small cell lung
DMS 273 small cell lung = tested on: DMS 273 small cell lung
P388/ADR leukemia = tested on: P388/ADR leukemia
M19-MEL melanoma = tested on: M19-MEL melanoma
P388 leukemia = tested on: P388 leukemia
XF 498 CNS = tested on: XF 498 CNS
RXF-631 renal = tested on: RXF-631 renal
LXFL 529 NSCLC = tested on: LXFL 529 NSCLC
HS 578T breast = tested on: HS 578T breast

Q: Which TGI (PC-3 prostate) does the source give for `COc1ccc(-c2oc3cc(OC(C)=O)cc(OC(C)=O)c3c(=O)c2OC)cc1` here?
A: 59 µM

Q: And the TGI (MDA-MB-435)?
A: 25.4 µM

Q: Which TGI (HOP-18 NSCLC) does the source give for `CC(=O)OCC1OC(NC(=O)N(CCCl)N=O)C(OC(C)=O)C(OC(C)=O)C1OC(C)=O` (configuration not stated) here?
A: > 100 µM

Q: What about the TGI (SN12K1 renal) of the same molecule?
A: > 100 µM

Q: What about the TGI (DMS 114 small cell lung) of the same molecule?
A: > 100 µM

Q: And the TGI (DMS 273 small cell lung)?
A: > 100 µM

Q: What about the TGI (P388/ADR leukemia) of the same molecule?
A: > 100 µM

Q: What about the TGI (M19-MEL melanoma) of the same molecule?
A: > 100 µM

Q: What about the TGI (P388 leukemia) of the same molecule?
A: > 100 µM

Q: And the TGI (XF 498 CNS)?
A: > 100 µM

Q: How did the TGI (HOP-18 NSCLC) turn out when `C=CCOCCC(CC=C)C(=O)CC(=O)OC` (configuration not stated) was run?
A: > 100 µM

Q: And the TGI (DMS 273 small cell lung)?
A: > 100 µM

Q: And the TGI (XF 498 CNS)?
A: > 100 µM

Q: What does the source list for `CCn1c(=O)c(C(=O)O)c(Cl)c2cc3c(cc21)OCO3`?
A: TGI (HOP-18 NSCLC): > 100 µM; TGI (SN12K1 renal): > 100 µM; TGI (DMS 273 small cell lung): > 100 µM; TGI (P388/ADR leukemia): > 100 µM; TGI (M19-MEL melanoma): > 100 µM; TGI (P388 leukemia): > 100 µM; TGI (XF 498 CNS): > 100 µM

Q: How did the TGI (RXF-631 renal) turn out when `NC(=O)c1ccc([N+](=O)[O-])cc1` was run?
A: > 100 µM

Q: And the TGI (DMS 114 small cell lung)?
A: > 100 µM

Q: What about the TGI (DMS 273 small cell lung) of the same molecule?
A: > 100 µM

Q: And the TGI (M19-MEL melanoma)?
A: > 100 µM

Q: And the TGI (XF 498 CNS)?
A: > 100 µM

Q: And the TGI (LXFL 529 NSCLC)?
A: > 100 µM

Q: Which results are given for `C1CSCCSCSCCS1`?
A: TGI (PC-3 prostate): > 100 µM; TGI (MDA-MB-435): > 100 µM; TGI (HS 578T breast): > 100 µM

Q: Which results are given for `O=C1c2cccc(O)c2C(=O)c2c(O)cccc21`?
A: TGI (DMS 114 small cell lung): > 100 µM; TGI (DMS 273 small cell lung): > 100 µM; TGI (M19-MEL melanoma): 24.3 µM; TGI (XF 498 CNS): > 100 µM; TGI (LXFL 529 NSCLC): > 100 µM

Q: With `N=C(N)c1ccc(-c2ccc(-c3ccc4ccccc4c3)s2)s1` as the molecule, how does the GI50 (PC-3 prostate) read?
A: 2.19 µM

Q: And the TGI (PC-3 prostate)?
A: 4.87 µM

Q: What about the GI50 (MDA-MB-435) of the same molecule?
A: 1.91 µM

Q: What about the TGI (MDA-MB-435) of the same molecule?
A: 4.08 µM

Q: What about the GI50 (HS 578T breast) of the same molecule?
A: 2.07 µM

Q: What about the TGI (HS 578T breast) of the same molecule?
A: 4.71 µM

Q: What does the source list for `COc1ccc(N2C(=O)/C(=C\c3ccccc3)SC2c2cc(OC)c(OC)c(OC)c2)cc1` (configuration not stated)?
A: TGI (PC-3 prostate): > 100 µM; TGI (MDA-MB-435): 79.7 µM; TGI (HS 578T breast): > 100 µM

Q: Which TGI (PC-3 prostate) does the source give for `CS(=O)(=O)c1ccc2nc(-c3ccc(O)cc3)sc2c1` here?
A: 32.1 µM

Q: What about the TGI (MDA-MB-435) of the same molecule?
A: 37.8 µM

Q: What does the source list for `C=CCNC1=C2C[C@@H](C)C[C@H](OC)[C@H](O)[C@@H](C)/C=C(\C)[C@H](OC(N)=O)[C@@H](OC)/C=C\C=C(/C)C(=O)NC(=CC1=O)C2=O`?
A: TGI (PC-3 prostate): 40.7 µM; TGI (MDA-MB-435): 17 µM; TGI (HS 578T breast): 47.5 µM

Q: With `COc1ccc2c(c1)C(OC)C1c3c(cc4c(c3-2)OCO4)CCN1C` (configuration not stated) as the molecule, how does the TGI (PC-3 prostate) read?
A: 9.34 µM

Q: And the TGI (MDA-MB-435)?
A: 13.1 µM

Q: What about the TGI (HS 578T breast) of the same molecule?
A: 5.35 µM

Q: For `O=C(Nc1ccc(Cl)cc1)c1cc([N+](=O)[O-])ccc1O`, which TGI (HOP-18 NSCLC) is on record?
A: 7.16 µM

Q: And the TGI (RXF-631 renal)?
A: > 45.7 µM

Q: What about the TGI (DMS 114 small cell lung) of the same molecule?
A: 6.75 µM

Q: And the TGI (DMS 273 small cell lung)?
A: 20 µM

Q: And the TGI (M19-MEL melanoma)?
A: 23.5 µM

Q: And the TGI (XF 498 CNS)?
A: 8.72 µM

Q: What about the TGI (LXFL 529 NSCLC) of the same molecule?
A: 16.8 µM

Q: How did the TGI (HOP-18 NSCLC) turn out when `CC1C[C@]2(C[C@@H](C)C(=O)O2)OC2CC3(C)C4CCC5C(C)(C)OC(=O)CC[C@@]56C[C@@]46CC[C@]3(C)C12` (some centres not stated) was run?
A: > 100 µM

Q: What about the TGI (RXF-631 renal) of the same molecule?
A: > 100 µM

Q: And the TGI (DMS 114 small cell lung)?
A: > 100 µM

Q: What about the TGI (DMS 273 small cell lung) of the same molecule?
A: > 100 µM

Q: What about the TGI (XF 498 CNS) of the same molecule?
A: > 100 µM

Q: And the TGI (LXFL 529 NSCLC)?
A: > 100 µM

Q: Which results are given for `C[n+]1c2ccccc2c(CNCC(=O)O)c2ccccc21`?
A: TGI (HOP-18 NSCLC): 22.6 µM; TGI (DMS 114 small cell lung): 4.83 µM; TGI (DMS 273 small cell lung): 2.74 µM; TGI (M19-MEL melanoma): 16.5 µM; TGI (XF 498 CNS): 3.85 µM; TGI (LXFL 529 NSCLC): 3.15 µM

Q: Which results are given for `c1ccc(-c2n(Cc3ccc4ccccc4c3)c3ccccc3[n+]2Cc2ccc3ccccc3c2)cc1`?
A: GI50 (PC-3 prostate): 0.27 µM; TGI (PC-3 prostate): 1.13 µM; GI50 (MDA-MB-435): 0.288 µM; TGI (MDA-MB-435): 1.06 µM

Q: With `COC(=O)C(Cc1ccc(O)cc1)NC(=O)C(COCc1ccccc1)NC(=O)OCc1ccccc1` (configuration not stated) (Cbz-Ser(Bn)-Tyr-OMe; configuration not given here) as the molecule, how does the TGI (PC-3 prostate) read?
A: 33.3 µM

Q: What about the TGI (MDA-MB-435) of the same molecule?
A: 34.1 µM

Q: What about the TGI (HS 578T breast) of the same molecule?
A: 53 µM
